Key:
Format in all cases: in vivo
[1] = test system: fall armyworm larvae (Spodoptera frugiperda); experiment: whole plant or invertebrate; conditions: 168 h
Experimental: Spodoptera frugiperda—Spray Test
• Solvent: 78.0 parts by weight acetone • 1.5 parts by weight dimethylformamide • Emulsifier: alkylarylpolyglycol ether
(§1) To produce a suitable preparation of active compound, 1 part by weight of active compound is mixed with the stated amount of solvents and is diluted with water, containing an emulsifier concentration of 1000 ppm, to the desired concentration. Further test concentrations are prepared by dilution with emulsifier containing water.
Maize (Zea mays) leaf sections are sprayed with a preparation of the active ingredient of the desired concentration. Once dry, the leaf sections are infested with fall armyworm larvae (Spodoptera frugiperda).
After 7 days mortality in % is determined. 100% means all caterpillars have been killed and 0% means none of the caterpillars have been killed.
Spodoptera frugiperda—Spray Test (SPODFR)
After the specified period of time, mortality in % is determined. 100% means all caterpillars have been killed and 0% means none of the caterpillars have been killed.

[2] = test system: larvae of the banded cucumber beetle (Diabrotica balteata); experiment: Diabrotica balteata spray test; conditions: 168 h, 100 g/ha (=32 μg/well), after 7 days, read-out: efficacy (seedling growth)
Experimental: Diabrotica balteata—Spray Test
(§2) • Solvent: 78.0 parts by weight of acetone • 1.5 parts by weight of dimethylformamide • Emulsifier: alkylarylpolyglycol ether
as §1, with “solvent,” for “solvents”, “and the concentrate” for “and”
Soaked wheat seeds (Triticum aestivum) are placed in a multiple well plate filled with agar and some water and are incubated for 1 day to germinate (5 seeds per well). The germinated wheat seeds are sprayed with a test solution containing the desired concentration of the active ingredient. Afterwards each unit is infected with 10-20 larvae of the banded cucumber beetle (Diabrotica balteata).
After 7 days efficacy in % is determined. 100% means all the seedlings have grown up like in the untreated, uninfected control; 0% means none of the seedlings have grown.

[3] = test system: larvae of the southern green stink bug (Nezara viridula); experiment: whole plant or invertebrate; conditions: 96 h
Experimental: Nezara viridula—Spray Test
as §2
as §1, with “solvent,” for “solvents”, “and the concentrate” for “and”
Barley plants (Hordeum vulgare) are sprayed with a test solution containing the desired concentration of the active ingredient and are infested with larvae of the southern green stink bug (Nezara viridula).
After 4 days mortality in % is determined. 100% means all the stink bugs have been killed; 0% means none of the stink bugs have been killed.

Row | SMILES | mortality at 100 g/ha [1] | pest or weed control at 32 µg/disc, 100 g/ha [2] | mortality at 500 g/ha [3] | mortality at 100 g/ha [3]
1 | C[C@H](NC(=O)c1cc(Cl)cc(S(=O)(=O)C(F)F)c1)c1ncnn1-c1cc(C#N)ncn1 [I-119] | 100% | 100% | 100% | –
2 | CC(C)N(C)C(=O)c1cc(-n2ncnc2[C@H](C)NC(=O)c2cccc(OC(F)(F)F)c2)ncn1 [I-111] | 100% | – | – | –
3 | C[C@H](NC(=O)c1cc(Br)cc(OC(F)F)c1)c1nc(C2CC2)nn1-c1cc(C#N)ncn1 [I-16] | – | 100% | – | –
4 | C[C@H](NC(=O)c1cc(Cl)cc(OC(F)(F)C(F)(F)I)c1)c1ncnn1-c1cc(C(N)=O)ncn1 [I-114, 6-(5-{(1S)-1-[3-chloro-5-(1,1,2,2-tetrafluoro-2-iodoethoxy)benzamido]ethyl}-1H-1,2,4-triazol-1-yl)pyrimidine-4-carboxamide] | 100% | 100% | – | –
5 | C[C@H](NC(=O)c1cc(OC(F)(F)F)cc(OC(F)(F)F)c1)c1nc(C2CC2)nn1-c1cc(C(=O)N(C)C)ncn1 [I-165] | 100% | 100% | – | –
6 | C[C@H](NC(=O)c1cc(Cl)cc(OC(F)(F)F)c1)c1nc(C2CC2)nn1-c1cc(C(N)=O)ncn1 [I-106] | 100% | 100% | – | –
7 | C[C@H](NC(=O)c1cc(Br)cc(OC(F)(F)F)c1)c1nc(C2CC2)nn1-c1cc(C#N)ncn1 [I-15, 3-bromo-N-[(1S)-1-[2-(6-cyanopyrimidin-4-yl)-5-cyclopropyl-1,2,4-triazol-3-yl]ethyl]-5-(trifluoromethoxy)benzamide] | 100% | 100% | – | –
8 | C[C@H](NC(=O)c1cc(S(=O)(=O)C(F)(F)F)cc(S(=O)(=O)C(F)(F)F)c1)c1nc(C2CC2)nn1-c1cc(C(N)=O)ncn1 [I-107] | 100% | 100% | – | –
9 | C[C@H](NC(=O)c1cc(Br)cc(Br)c1)c1nc(C2CC2)nn1-c1cc(C(N)=O)ncn1 [I-145] | 100% | 100% | – | –
10 | Cc1nc([C@H](C)NC(=O)c2cc(OC(F)(F)F)cc(S(C)(=O)=O)c2)n(-c2cc(C#N)ncn2)n1 [I-30] | 100% | 100% | 100% | –
11 | C[C@H](NC(=O)c1cc(Br)cc(S(=O)(=O)C(F)(F)F)c1)c1ncnn1-c1cc(C(N)=O)ncn1 [I-138] | 100% | 80% | 100% | –
12 | C[C@H](NC(=O)c1cc(OC(F)(F)F)cc(S(=O)(=O)C(F)(F)F)c1)c1ncnn1-c1cc(C#N)ncn1 [I-91] | 100% | 100% | – | –
13 | C[C@H](NC(=O)c1cc(Cl)cc(S(=O)(=O)C(F)(F)F)c1)c1nc(C2CC2)nn1-c1cc(C(N)=O)ncn1 [I-109] | 100% | 100% | – | –
14 | CNC(=O)c1cc(-n2nc(C3CC3)nc2[C@H](C)NC(=O)c2cc(OC(F)(F)F)cc(S(C)(=O)=O)c2)ncn1 [I-155] | 100% | – | 100% | –
15 | CC(NC(=O)c1cc(OC(F)(F)F)cc(S(=O)(=O)C2CC2)c1)c1ncnn1-c1cc(C#N)ncn1 (stereo not drawn) [I-9] | 100% | – | – | –
16 | C[C@H](NC(=O)c1cc(Br)cc(OC(F)(F)F)c1)c1nc(C2CC2)nn1-c1cc(C(N)=O)ncn1 [I-13, 6-[5-[(1S)-1-[[3-bromo-5-(trifluoromethoxy)benzoyl]amino]ethyl]-3-cyclopropyl-1,2,4-triazol-1-yl]pyrimidine-4-carboxamide] | 100% | 100% | – | –
17 | C[C@H](NC(=O)c1cc(OC(F)(F)F)cc(C2CC2)c1)c1nc(C2CC2)nn1-c1cc(C#N)ncn1 [I-17] | – | 100% | – | –
18 | C[C@H](NC(=O)c1cc(OC(F)(F)F)cc(S(=O)(=O)C(F)(F)F)c1)c1nc(C2CC2)nn1-c1cc(C(=O)N(C)C)ncn1 [I-157] | 100% | 100% | – | –
19 | C[C@H](NC(=O)c1cc(C(F)(F)F)cc(S(C)(=O)=O)c1)c1nc(C2CC2)nn1-c1cc(C(N)=O)ncn1 [I-108] | 100% | – | – | –
20 | CNC(=O)c1cc(-n2nc(C)nc2[C@H](C)NC(=O)c2cc(Cl)cc(S(C)(=O)=O)c2)ncn1 [I-62] | 83% | – | 100% | –
21 | C[C@H](NC(=O)c1cc(Cl)cc(S(=O)(=O)c2ccc(Cl)cc2)c1)c1ncnn1-c1cc(C#N)ncn1 [I-11] | 100% | 80% | – | –
22 | CC(C)N(C)C(=O)c1cc(-n2ncnc2[C@H](C)NC(=O)c2cc(Br)cc(OC(F)(F)C(F)F)c2)ncn1 [I-123] | 100% | – | – | –
23 | C[C@H](NC(=O)c1cc(Cl)cc(S(=O)(=O)C(F)F)c1)c1nc(C2CC2)nn1-c1cc(C(N)=O)ncn1 [I-151] | 83% | – | – | –

Row | SMILES | mortality at 100 g/ha [1] | pest or weed control at 32 µg/disc, 100 g/ha [2] | mortality at 500 g/ha [3] | mortality at 100 g/ha [3]
24 | Cc1nc([C@H](C)NC(=O)c2cc(Cl)cc(S(=O)(=O)C(F)(F)F)c2)n(-c2cc(C#N)ncn2)n1 [I-24] | 100% | 100% | – | –
25 | C[C@H](NC(=O)c1cc(C(F)F)cc(C(F)F)c1)c1nc(C2CC2)nn1-c1cc(C(N)=O)ncn1 [I-147] | 100% | – | 100% | –
26 | CSc1cc(OC(F)F)cc(C(=O)N[C@@H](C)c2nc(C3CC3)nn2-c2cc(C(N)=O)ncn2)c1 [I-137] | 100% | – | – | –
27 | C[C@H](NC(=O)c1cc(Br)cc(Br)c1)c1nc(C2CC2)nn1-c1cc(C(=O)N(C)C)ncn1 [I-158] | 100% | 100% | – | –
28 | C[C@H](NC(=O)c1cc(Br)cc(OC(F)F)c1)c1nc(C2CC2)nn1-c1cc(C(N)=O)ncn1 [I-104] | 100% | 100% | – | –
29 | C[C@H](NC(=O)c1cc(OC(F)(F)F)cc(S(=O)(=O)C(F)F)c1)c1nc(C2CC2)nn1-c1cc(C(N)=O)ncn1 [I-144] | 100% | – | – | –
30 | C[C@H](NC(=O)c1cc(OC(F)(F)F)cc(C2(C#N)CC2)c1)c1nc(C2CC2)nn1-c1cc(C#N)ncn1 [I-43] | 100% | 80% | – | –
31 | Cc1nc([C@H](C)NC(=O)c2cc(Br)cc(OC(F)F)c2)n(-c2cc(C#N)ncn2)n1 [I-26] | 100% | 100% | – | –
32 | C[C@H](NC(=O)c1cc(OC(F)(F)F)cc(S(C)(=O)=O)c1)c1nc(C2CC2)nn1-c1cc(C(N)=O)ncn1 [I-47] | 100% | 100% | – | –
33 | Cc1nc([C@H](C)NC(=O)c2cc(Br)cc(C#N)c2)n(-c2cc(C(N)=O)ncn2)n1 [I-127] | 100% | 100% | 100% | 90%
34 | C[C@H](NC(=O)c1cc(OC(F)(F)F)cc(S(C)(=O)=O)c1)c1nc(C2CC2)nn1-c1cc(C#N)ncn1 [I-14] | – | 100% | – | –
35 | Cc1nc([C@H](C)NC(=O)c2cc(OC(F)(F)F)cc(OC(F)(F)F)c2)n(-c2cc(C(N)=O)ncn2)n1 [I-117] | 100% | 100% | 100% | –
36 | C[C@H](NC(=O)c1cc(C(F)(F)F)cc(C(F)(F)F)c1)c1nc(C2CC2)nn1-c1cc(C(N)=O)ncn1 [I-105] | 100% | 100% | – | –
37 | C[C@H](NC(=O)c1cc(OC(F)(F)F)cc(C2CC2)c1)c1nc(C2CC2)nn1-c1cc(C(N)=O)ncn1 [I-146] | 100% | 100% | – | –
38 | C[C@H](NC(=O)c1cc(C#N)cc(OC(F)(F)F)c1)c1nc(C2CC2)nn1-c1cc(C#N)ncn1 [I-53] | – | 100% | – | –
39 | Cc1nc([C@H](C)NC(=O)c2cc(Cl)cc(C#N)c2)n(-c2cc(C(N)=O)ncn2)n1 [I-131] | – | 100% | 100% | –
40 | Cc1nc([C@H](C)NC(=O)c2cc(Cl)cc(S(=O)(=O)C(F)F)c2)n(-c2cc(C#N)ncn2)n1 [I-27] | 100% | 100% | – | –
41 | C[C@H](NC(=O)c1ccnc(OC(F)(F)F)c1)c1ncnn1-c1cc(C(N)=O)ncn1 [I-132] | 100% | 100% | 100% | –
42 | Cc1nc([C@H](C)NC(=O)c2cc(OC(F)F)cc(OC(F)F)c2)n(-c2cc(C(=O)N(C)C(C)C)ncn2)n1 [I-100] | 83% | – | – | –
43 | C[C@H](NC(=O)c1cc(OC(F)F)cc(C2CC2)c1)c1nc(C2CC2)nn1-c1cc(C(N)=O)ncn1 [I-153] | 100% | 100% | – | –
44 | C[C@H](NC(=O)c1cc(Br)cc(C2CC2(Cl)Cl)c1)c1ncnn1-c1cc(C#N)ncn1 (stereo partly drawn) [I-54] | 100% | 100% | – | –
45 | Cc1nc([C@H](C)NC(=O)c2cc(F)cc(C#N)c2)n(-c2cc(C(N)=O)ncn2)n1 [I-96] | – | – | 100% | –

From US12612386B2, “Heteroaryl-triazole compounds as pesticides” (Bayer Aktiengesellschaft, priority 2020, dated 2026)
